In experiment [1] the test system is A549 non-small cell lung cancer (NSCLC) cells. The experiment is described as follows: Flow cytometric analysis (sub-G1 peak). In kind it is cell-based. The note with it: A549, 48 hours, MP-470 alone. The protocol: (§1) In addition, A549 non-small cell lung cancer (NSCLC) cells and LNCaP prostate carcinoma cells were treated with MP-470 in the presence or absence of Tarceva® for 48 hours and subjected to flow cytometric analysis. Nocodazole was also included to induce a G2/M arrest, in an effort to determine if these compounds could overcome such a block. Left-hand columns for each cell type represent cells with no additional treatment, while right-hand columns represent cells pretreated overnight with nocodazole (0.3 ug/mL) to induce G2/M arrest.

For experiment [2], the system named is LNCaP prostate carcinoma cells. The experiment is described as follows: Flow cytometric analysis (sub-G1 peak). It is filed as cell-based. The following applies: 48 hours, MP-470 alone. The protocol:
as §1
A general note: In flow cytometry, cells or beads pass a laser one at a time.

Experiment [3] concerns Rad51 in SF-767 cancer cells. Nature of the experiment: Western blotting for Rad51 after IR. In kind it is cell-based. The following applies: SF-767 cells pretreated with MP470. (In general: In western blotting, separated proteins are transferred to a membrane and probed.)
Experiment [4] concerns LNCaP tumors. The experiment is described as follows: Xenograft study. The following applies: MP-470/Tarceva® in combination, 18 days treatment, FIG. 35. In kind it is in vivo, mice. The method, then:
A xenograft study was carried out in order to evaluate the combined effects of MP-470 (Compound III-1-3) and Tarceva® in vivo. LNCaP cells were injected into immunocompromised mice and allowed to develop into measurable tumors, at which point treatment was initiated. Mice were allocated to one of four groups and treated with vehicle, MP-470 (referred to in FIG. 35 as HPK56), Tarceva®, or MP-470/Tarceva® in combination, as indicated. […] The results of these studies are shown in graphical form in FIG. 35.

In experiment [5] the test system is mutant forms of PDGFR. Nature of the experiment: Activity against mutant PDGFR (stated). In kind it is biochemical.
Experiment [6] has as its target cKit(V654A)(h) (Homo sapiens, UniProt P10721, V654A). Nature of the experiment: Kinase profile screen. The note with it: 1 uM. It is filed as biochemical. The method, then:
In order to determine the specificity and potential alternative targets for MP470, kinase profile screen were performed utilizing the KinaseProfiler™ Screen (Upstate Corp) and Select Screen™ kinase profiling (Invitrogen). Between the two screens, 53 different kinases were tested, representing a broad proportion of the human kinome. MP470 was screened at a concentration of 1 μM against both wildtype and mutant kinases.

Experiment [7] concerns pancreatic cancer cell lines MIAPaCa-2 and PANC-1. The experiment is described as follows: Cancer cell cytotoxicity assay, range over both pancreatic lines. The following applies: potency order. In kind it is cell-based. The method, then:
To validate the hypothesis that the designed c-kit/PDGFR tyrosine kinase inhibitors mediate GIST882 cell killing and PDGFR-mediated cell killing of pancreatic cancer cell lines (CFPAC-1, PANC-1 and MIA PaCa-2), an in vitro cytotoxicity assay was performed. The GIST882 cell line used in this study has a c-kit gain-of-function mutation (K642E). […] First the cells were cultured. GIST882 cells were provided by Dr. Jonathan A. Fletcher (Dana-Farber Cancer Institute, Boston, Mass.). PANC-1 and MIAPaCa-2 cells were provided by Dr. Daniel Von Hoff (Arizona Cancer Center, Tucson, Ariz.). […] All the cell lines were incubated in a humidified incubator at 37° C. with 5% CO2 atmosphere.
After incubation for 4 days at 37° C. in a humidified incubator, the cells were fixed with 10% Trichloroacetic acid solution (Catalog No. 490-10, Sigma). Subsequently, they were labeled with 0.04% Sulforhodamine B (S9012, Sigma) in 1% acetic acid. […] The absorbance of each well was read on a plate reader (Wallac Vector^2, PerkinElmer) at the wavelength of 570 nm. Data were expressed as the percentage of survival of control calculated from the absorbance corrected for background absorbance. The surviving percent of cells was determined by dividing the mean absorbance values of the […] by the mean absorbance values of the control and multiplying by 100.

Experiment [8] deals with mutant forms of c-Kit. The experiment is described as follows: Activity against mutant c-Kit (stated). It is filed as biochemical.
The subject of experiment [9] is c-Met autophosphorylation in NIH 3T3 cells. The experiment is described as follows: Immunoblot for phospho-Met. In kind it is cell-based. The protocol: MP-470 (Compound III-1-3) has inhibitory effects on a number of receptor tyrosine kinases. In order to evaluate these effects at the cellular level, immunoblot analysis was performed on lysates from cells treated with MP470, with or without the addition of the EGFR inhibitor Tarceva®. Lysates were assayed for general tyrosine kinase activity, as well as the specific phosphorylation of c-Met and Akt. Briefly, NIH 3T3 cells were pretreated with drugs as indicated for 4 hours, then treated with pervanadate for a further 30 minutes. Immunoblot detection was carried out with antibodies for phosphotyrosine, phospho-Met and phospho-Akt (S473), as well as total c-Met and Akt. Beta-actin was used as a loading control.

Experiment [10] has as its system SF-767 glioblastoma multiformes cells. The experiment is described as follows: MTS cell death assay. It is filed as cell-based. The method, then:
To evaluate the ability of MP470 to enhance clinical therapy we used MP470 in combination with ionizing radiation on culture cancer cells. SF-767 glioblastoma multiformes cells were treated with 1 μM MP470, 800c Gy IR, or a combination of both.
On the technique in general: Formazan colour is commonly taken as a measure of viable cells.

Experiment [11] concerns the target Aurora-A (Homo sapiens, UniProt O14965). The following applies: 0.1 μM ATP, 30 μM Kemptide. The method, then:
[drawing 74] enzyme assays were performed using the Kinase-Glo™ Luminescent Kinase Assay from Promega Corporation (Madison, Wis.). The following conditions were used: [table] Enzymatic reactions were allowed to progress for 2 hours at 30° C., then assayed for kinase activity according to manufacturer protocol.

Experiment [12] addresses CDK1 (Homo sapiens, UniProt P06493). The experiment is described as follows: Kinase-Glo Luminescent Kinase Assay (Examples 27, 33). In kind it is biochemical. The protocol: (§2) The following conditions were used:
(§3) The protein serine-threonine kinases cAMP PK, MKK6 and Cdk1 were tested alongside Aurora-2 kinase to evaluate the activity of compound (II-2-6) against these protein kinases. Briefly, in this assay kinase activity is determined by quantifying the amount of ATP remaining in solution following the kinase reaction by measuring the relative light units (RLU) produced by luciferase using a luminometer. Percent activity was determined for individual compounds by comparing luminometer readings of drug-treated reactions to controls containing no drug (RLUNo Inhib) and no Aurora-2 enzyme (RLUNo Kinase) in the following equation: […]

The target in experiment [13] is MKK6 (Homo sapiens, UniProt P52564). The experiment is described as above. In kind it is biochemical. The method, then:
as §2, §3

The target of experiment [14] is cAMP-PK (Homo sapiens, UniProt P17612). The experiment is described as above. In kind it is biochemical. The method, then: as §2, §3

The record followed here is patent US8552018B2, “Substituted tricyclic compounds as protein kinase inhibitors” (Arizona Board of Regents on behalf of the University of …, priority 2003, dated 2013).

Sequence of MKK6 (P52564 whole entry, species assumed): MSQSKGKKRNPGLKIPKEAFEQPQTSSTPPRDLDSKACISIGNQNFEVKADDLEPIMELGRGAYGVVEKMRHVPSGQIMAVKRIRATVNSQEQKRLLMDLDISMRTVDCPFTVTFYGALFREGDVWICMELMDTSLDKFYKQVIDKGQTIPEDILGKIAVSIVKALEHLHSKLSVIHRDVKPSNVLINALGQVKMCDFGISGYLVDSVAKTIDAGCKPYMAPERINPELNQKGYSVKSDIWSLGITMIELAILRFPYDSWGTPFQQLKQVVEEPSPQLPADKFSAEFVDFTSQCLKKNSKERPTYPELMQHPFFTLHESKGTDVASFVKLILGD
Sequence of CDK1 (P06493 whole entry, species assumed): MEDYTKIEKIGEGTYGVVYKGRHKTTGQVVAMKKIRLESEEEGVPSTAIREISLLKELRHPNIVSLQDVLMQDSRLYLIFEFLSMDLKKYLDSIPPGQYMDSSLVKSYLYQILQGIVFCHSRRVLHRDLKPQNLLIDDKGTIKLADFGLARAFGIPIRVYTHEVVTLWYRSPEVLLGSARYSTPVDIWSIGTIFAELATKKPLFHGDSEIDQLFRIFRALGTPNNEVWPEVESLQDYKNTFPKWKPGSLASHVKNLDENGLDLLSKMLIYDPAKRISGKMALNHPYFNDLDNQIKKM
Sequence of CDK1 (P14635 whole entry partner, species assumed): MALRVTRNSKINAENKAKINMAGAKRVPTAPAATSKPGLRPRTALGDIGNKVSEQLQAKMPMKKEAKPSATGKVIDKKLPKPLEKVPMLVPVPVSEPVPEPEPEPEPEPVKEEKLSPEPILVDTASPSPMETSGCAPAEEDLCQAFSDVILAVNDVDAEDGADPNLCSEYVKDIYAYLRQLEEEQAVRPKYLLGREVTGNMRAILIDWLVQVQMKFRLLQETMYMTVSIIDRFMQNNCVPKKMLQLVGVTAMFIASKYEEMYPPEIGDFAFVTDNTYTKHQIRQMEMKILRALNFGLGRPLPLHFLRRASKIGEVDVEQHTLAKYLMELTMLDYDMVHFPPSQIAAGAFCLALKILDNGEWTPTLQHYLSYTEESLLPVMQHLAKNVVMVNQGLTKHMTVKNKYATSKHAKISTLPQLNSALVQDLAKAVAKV
Sequence of cKit(V654A)(h) (P10721 26-976 V654A): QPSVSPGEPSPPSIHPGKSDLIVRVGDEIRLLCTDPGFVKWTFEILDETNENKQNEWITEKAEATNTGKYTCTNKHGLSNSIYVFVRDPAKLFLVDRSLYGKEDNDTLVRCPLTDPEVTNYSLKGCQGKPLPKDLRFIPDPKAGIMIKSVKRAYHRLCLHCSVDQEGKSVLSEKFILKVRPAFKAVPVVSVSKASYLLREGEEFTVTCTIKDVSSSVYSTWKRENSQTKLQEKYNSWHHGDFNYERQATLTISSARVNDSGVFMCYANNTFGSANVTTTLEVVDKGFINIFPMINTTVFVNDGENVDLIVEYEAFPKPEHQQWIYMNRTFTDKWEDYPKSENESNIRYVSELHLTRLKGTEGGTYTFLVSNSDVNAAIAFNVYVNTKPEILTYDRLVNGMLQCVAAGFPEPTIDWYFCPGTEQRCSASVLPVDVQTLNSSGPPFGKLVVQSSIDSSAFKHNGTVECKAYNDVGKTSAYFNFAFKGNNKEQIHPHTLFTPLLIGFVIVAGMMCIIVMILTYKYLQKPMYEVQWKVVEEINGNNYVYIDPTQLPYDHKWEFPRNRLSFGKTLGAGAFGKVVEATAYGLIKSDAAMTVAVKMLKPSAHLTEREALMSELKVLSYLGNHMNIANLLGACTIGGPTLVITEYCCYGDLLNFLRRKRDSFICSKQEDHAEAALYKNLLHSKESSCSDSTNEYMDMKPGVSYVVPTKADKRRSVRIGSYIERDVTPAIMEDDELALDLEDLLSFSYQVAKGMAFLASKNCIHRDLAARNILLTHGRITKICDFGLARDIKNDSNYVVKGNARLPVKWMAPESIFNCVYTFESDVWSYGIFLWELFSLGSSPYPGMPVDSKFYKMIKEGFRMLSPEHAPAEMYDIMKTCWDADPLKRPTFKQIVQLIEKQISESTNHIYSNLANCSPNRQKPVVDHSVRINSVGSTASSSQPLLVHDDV
Sequence of Aurora-A (O14965 whole entry): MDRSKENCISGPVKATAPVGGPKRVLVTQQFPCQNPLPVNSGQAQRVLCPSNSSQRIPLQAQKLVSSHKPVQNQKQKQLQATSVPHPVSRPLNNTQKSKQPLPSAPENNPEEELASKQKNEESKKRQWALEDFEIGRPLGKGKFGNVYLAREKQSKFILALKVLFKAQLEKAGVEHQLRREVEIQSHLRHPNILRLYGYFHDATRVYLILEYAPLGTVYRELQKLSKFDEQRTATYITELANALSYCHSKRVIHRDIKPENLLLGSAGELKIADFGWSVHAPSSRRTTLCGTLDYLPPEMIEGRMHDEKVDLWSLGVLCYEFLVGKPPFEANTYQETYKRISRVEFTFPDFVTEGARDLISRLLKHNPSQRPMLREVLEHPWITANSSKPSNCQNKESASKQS

Broadly, the IC50 is the concentration at which inhibition is half-maximal. Higher therefore signals lower potency. As for `S=C(NCc1ccc2c(c1)OCO2)N1CCN(c2ncnc3c2oc2ccccc23)CC1` [HPK56, 4-Benzo[4,5]furo[3,2-d]pyrimidin-4-yl-piperazine-1-carbothioic acid (benzo[1,3]dioxol-5-ylmethyl)-amide], the “apoptosis (sub-G1 peak)” value in experiment [1] and in experiment [2] was “induced apoptosis” in each case. Also, in experiment [3], the “Rad51 protein levels after exposure to IR” value is “remained low and near control level”. Also, the tumor growth entry in experiment [4] is on record as “slowed tumor growth to nearly zero”. The “activity against mutant forms of PDGFR (in words)” value in [5] is “low nanomolar”. Moreover, in experiment [6], the “activity against mutant kinase” value is “activity”. Also, in experiment [7], the IC50 lay within 2.1 to 3 µM. Further, the “activity against mutant forms of c-Kit (in words)” value in [8] is listed as “low nanomolar”. Also, the “activating autophosphorylation of c-Met” value in [9] (NIH 3T3, 4 hours, agent alone) is “reduced”; in experiment [9] (NIH 3T3, MP-470 in combination with Tarceva®), “reduced”. For the same molecule, the “cell death (MTS)” value in experiment [10] (SF-767, 1 μM MP470 alone) is “induced cell death”. Moreover, the “increase of cell death over either agent alone” value in [10] (SF-767, 1 μM MP470 in combination with 800c Gy IR) was “more than 2 fold”.
Turning to `COc1cc2[nH]c3ncnc(N4CCN(C(=S)Nc5ccc(S(=O)(=O)Nc6ncccn6)cc5)CC4)c3c2cc1OC` [HPK62, 4-(6,7-Dimethoxy-9H-1,3,9-triaza-fluoren-4-yl)-piperazine-1-carbothioic acid [4-(pyrimidin-2-ylsulfamoyl)-phenyl]-amide], the IC50 in experiment [11] is 0.9 µM; in experiment [12] (CDK1, 0.1 μM ATP, 30 μM Kemptide), 22.3 µM; in experiment [13] (MKK6, 0.1 μM ATP, 30 μM Kemptide), 6.2 µM; in [14] (cAMP-PK, 0.1 μM ATP, 30 μM Kemptide), above 100 µM. The “kinase inhibitory activity (in words)” value is recorded as “inhibitory activity” in experiment [12] (Cdk1, FIG. 27); “inhibitory activity” in experiment [13] (MKK6, FIG. 27); “inhibitory activity” in experiment [14] (cAMP PK, FIG. 27).
